Test results: the supplement of paper PMC10307832

Key:
Test in all cases: relative viability (nuclei count vs DMSO), 5 days (fraction); higher = more cells survive
[1] = compound: C1COCCN1C2=NC(=NC3=C2OC4=C3C=CC=N4)C5=CC(=CC=C5)NC(=O)C6=CN=C(C=C6)N + O=C(CCCCCCC(=O)Nc1ccccc1)NO [Vorinostat] (partner 1 µM)
Method in brief: (§1)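 Lung cancer cell lines in 1536-well plates got either a single drug or a fixed anchor-drug dose together with five library-drug doses (not always all listed) in √10 steps, by pin tool, on the day after seeding. Nuclei were counted after 5 days, and relative viability is the treated-to-vehicle ratio of nuclei counts. Values are medians of duplicate plates.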

SGI-1776 + Linsitinib = compound: CN1CCC(CNc2ccc3ncc(-c4cccc(OC(F)(F)F)c4)n3n2)CC1 [SGI-1776] + C[C@]1(O)C[C@@H](c2nc(-c3ccc4ccc(-c5ccccc5)nc4c3)c3c(N)nccn32)C1 [Linsitinib] (partner 1 µM)
Method in brief: as §1

Entinostat + Phenformin = compound: Nc1ccccc1NC(=O)c1ccc(CNC(=O)OCc2cccnc2)cc1 [Entinostat] + N=C(N)NC(=N)NCCc1ccccc1 [Phenformin] (partner 250 µM)
Method in brief: as §1

[2] = compound: C1COCCN1C2=NC(=NC3=C2OC4=C3C=CC=N4)C5=CC(=CC=C5)NC(=O)C6=CN=C(C=C6)N + Cc1cc(Nc2cc(N3CCN(C)CC3)nc(Sc3ccc(NC(=O)C4CC4)cc3)n2)n[nH]1 [Tozasertib] (partner 0.1 µM)
Method in brief: as §1

Cell Line | relative viability ([1]; first compound 0.02 µM) | relative viability ([1]; first compound 0.06325 µM) | relative viability ([1]; first compound 0.2 µM) | relative viability ([1]; first compound 0.6325 µM) | relative viability ([1]; first compound 2 µM) | relative viability (SGI-1776 + Linsitinib; first compound 0.08 µM) | relative viability (SGI-1776 + Linsitinib; first compound 0.8 µM) | relative viability (SGI-1776 + Linsitinib; first compound 2.53 µM) | relative viability (SGI-1776 + Linsitinib; first compound 8 µM) | relative viability (Entinostat + Phenformin; first compound 0.02 µM) | relative viability (Entinostat + Phenformin; first compound 0.06325 µM) | relative viability (Entinostat + Phenformin; first compound 0.2 µM) | relative viability (Entinostat + Phenformin; first compound 0.6325 µM) | relative viability (Entinostat + Phenformin; first compound 2 µM) | relative viability ([2]; first compound 0.02 µM) | relative viability ([2]; first compound 0.06325 µM) | relative viability ([2]; first compound 0.2 µM) | relative viability ([2]; first compound 0.6325 µM) | relative viability ([2]; first compound 2 µM)
HCC-366 | 0.395 | 0.36 | 0.327 | 0.444 | 0.249 | 0.731 | 0.697 | 0.633 | 0.413 | 0.578 | 0.61 | 0.582 | 0.451 | 0.186 | 0.0782 | 0.144 | 0.0599 | 0.0546 | 0.0428
HCC-827 | 0.792 | 1.05 | 0.868 | 0.661 | 0.811 | 0.961 | 0.978 | 0.952 | 0.875 | 0.397 | 0.381 | 0.395 | 0.357 | 0.275 | 0.415 | 0.435 | 0.441 | 0.438 | 0.343
HOP-62 | 0.753 | 0.768 | 0.674 | 0.58 | 0.373 | 0.823 | 0.877 | 1.23 | 1.04 | 0.614 | 0.6 | 0.773 | 0.412 | 0.266 | 0.358 | 0.396 | 0.337 | 0.312 | 0.225
IA-LM | 0.855 | 1.03 | 1.08 | 0.44 | 0.401 | 0.732 | 0.603 | 0.593 | 0.692 | – | – | – | – | – | – | – | – | – | –
LC-2-ad | 0.712 | 0.695 | 0.738 | 0.702 | 0.508 | 0.842 | 0.959 | 0.911 | 0.639 | 0.568 | 0.566 | 0.579 | 0.365 | 0.208 | 0.428 | 0.499 | 0.46 | 0.473 | 0.392
LCLC-97TM1 | 0.804 | 0.862 | 0.751 | 0.755 | 0.43 | 0.193 | 0.154 | 0.187 | 0.16 | 0.423 | 0.376 | 0.392 | 0.465 | 0.395 | 0.266 | 0.214 | 0.155 | 0.405 | 0.261
LCLC-103H | 0.806 | 0.804 | 0.699 | 0.728 | 0.698 | 1.07 | 0.972 | 1.1 | 0.979 | 0.36 | 0.379 | 0.331 | 0.265 | 0.229 | 0.537 | 0.511 | 0.471 | 0.46 | 0.35
LK-2 | 0.125 | 0.317 | 0.247 | 0.273 | 0.257 | 0.697 | 0.773 | 0.523 | 0.418 | 0.497 | 0.761 | 0.576 | 0.383 | 0.32 | 0.172 | 0.156 | 0.167 | 0.154 | 0.176
LOU-NH91 | 0.95 | 0.975 | 0.926 | 0.86 | 0.78 | 1.06 | 1.03 | 0.955 | 0.666 | 0.746 | 0.773 | 0.75 | 0.706 | 0.55 | 0.591 | 0.738 | 0.649 | 0.652 | 0.465
LU99A | 0.435 | 0.546 | 0.365 | 0.418 | 0.309 | 0.573 | 0.54 | 0.545 | 0.432 | 0.783 | 0.891 | 0.722 | 0.609 | 0.545 | 0.277 | 0.276 | 0.231 | 0.21 | 0.173
LXF-289 | 0.792 | 0.895 | 0.619 | 0.821 | 0.547 | 0.992 | 0.98 | 1.01 | 0.97 | 0.538 | 0.554 | 0.532 | 0.414 | 0.354 | 0.177 | 0.181 | 0.156 | 0.145 | 0.119
NCI-H522 | 0.831 | 0.844 | 0.925 | 0.865 | 0.798 | – | – | – | – | 0.69 | 0.572 | 0.695 | 0.801 | 0.577 | 0.491 | 0.497 | 0.472 | 0.374 | 0.541
NCI-H1299 | – | – | – | – | – | 1.02 | 0.972 | 0.966 | 0.921 | – | – | – | – | – | – | – | – | – | –
NCI-H1563 | – | – | – | – | – | 1.14 | 1.19 | 1.16 | 1.08 | 0.76 | 0.646 | 0.714 | 0.669 | 0.607 | – | – | – | – | –
NCI-H1623 | – | – | – | – | – | – | – | – | – | 0.663 | 0.623 | 0.556 | 0.489 | 0.422 | 0.376 | 0.457 | 0.411 | 0.432 | 0.461
NCI-H1648 | 0.313 | 0.306 | 0.42 | 0.281 | 0.294 | – | – | – | – | – | – | – | – | – | 0.468 | 0.48 | 0.473 | – | 0.617
NCI-H1650 | 0.512 | 0.611 | 0.406 | 0.642 | 0.354 | – | – | – | – | 0.54 | 0.498 | 0.49 | 0.419 | 0.256 | 0.472 | 0.425 | 0.328 | 0.338 | 0.255
NCI-H1703 | – | – | – | – | – | 0.662 | 0.979 | 0.433 | 0.13 | – | – | – | – | – | – | – | – | – | –
NCI-H1792 | – | – | – | – | – | 0.479 | 0.543 | 0.503 | 0.647 | 0.318 | 0.441 | 0.315 | 0.101 | 0.17 | – | – | – | – | –
NCI-H2170 | 0.93 | 0.997 | 0.643 | 0.729 | 0.518 | – | – | – | – | 0.466 | 0.407 | 0.444 | 0.376 | 0.297 | 0.742 | 0.828 | 0.633 | 0.703 | 0.445
NCI-H2342 | 0.821 | 0.876 | 0.849 | 0.756 | 0.627 | – | – | – | – | 0.6 | 0.639 | 0.518 | 0.584 | 0.468 | 0.505 | 0.483 | 0.458 | 0.405 | 0.451
SW 900 | 0.455 | 0.573 | 0.488 | 0.425 | 0.392 | – | – | – | – | 0.653 | 0.759 | 0.686 | 0.369 | 0.306 | 0.519 | 0.762 | 0.371 | 0.373 | 0.279
